The Ki is the equilibrium dissociation constant of an inhibitor or competing ligand from its target. For orientation: IC50 means the point on the concentration scale where inhibition reaches its midpoint. Read a high IC50 as a need for much substance. For orientation: inhibition means the drop in the measured response relative to a control, in per cent. A low value points to little suppression.

SMILES strings stand for the structures.

In test [1] the target is T1, Thioredoxin reductase (Plasmodium falciparum 3D7, UniProt P61076).
T1 sequence (P61076 whole entry): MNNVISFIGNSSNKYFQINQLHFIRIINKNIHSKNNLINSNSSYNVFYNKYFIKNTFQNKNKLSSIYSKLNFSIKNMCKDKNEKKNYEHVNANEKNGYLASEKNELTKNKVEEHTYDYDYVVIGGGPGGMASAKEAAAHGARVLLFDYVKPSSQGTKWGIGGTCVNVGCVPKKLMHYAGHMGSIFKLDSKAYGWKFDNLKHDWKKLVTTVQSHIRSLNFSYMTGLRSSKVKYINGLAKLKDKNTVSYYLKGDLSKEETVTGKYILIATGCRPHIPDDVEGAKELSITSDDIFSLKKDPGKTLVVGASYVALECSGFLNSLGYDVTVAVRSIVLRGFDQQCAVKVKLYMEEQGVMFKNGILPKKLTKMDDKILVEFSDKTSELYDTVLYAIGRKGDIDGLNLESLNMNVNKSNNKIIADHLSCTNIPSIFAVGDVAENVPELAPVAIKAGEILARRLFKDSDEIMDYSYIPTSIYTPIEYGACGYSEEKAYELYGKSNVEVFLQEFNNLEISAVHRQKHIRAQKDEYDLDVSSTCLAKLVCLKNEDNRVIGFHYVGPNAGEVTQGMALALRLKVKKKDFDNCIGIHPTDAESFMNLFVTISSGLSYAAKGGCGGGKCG
The experiment in a line: Binding affinity to Plasmodium falciparum TrxR in presence of thioredoxin.

Test [2] deals with Plasmodium falciparum. The experiment in a line: Inhibition of Plasmodium falciparum K1 as [3H]hypoxanthine uptake. Format: functional, organism-based.
Test [3] deals with T2, Glutathione reductase, mitochondrial (Homo sapiens) (UniProt P00390).
T2 sequence (whole entry): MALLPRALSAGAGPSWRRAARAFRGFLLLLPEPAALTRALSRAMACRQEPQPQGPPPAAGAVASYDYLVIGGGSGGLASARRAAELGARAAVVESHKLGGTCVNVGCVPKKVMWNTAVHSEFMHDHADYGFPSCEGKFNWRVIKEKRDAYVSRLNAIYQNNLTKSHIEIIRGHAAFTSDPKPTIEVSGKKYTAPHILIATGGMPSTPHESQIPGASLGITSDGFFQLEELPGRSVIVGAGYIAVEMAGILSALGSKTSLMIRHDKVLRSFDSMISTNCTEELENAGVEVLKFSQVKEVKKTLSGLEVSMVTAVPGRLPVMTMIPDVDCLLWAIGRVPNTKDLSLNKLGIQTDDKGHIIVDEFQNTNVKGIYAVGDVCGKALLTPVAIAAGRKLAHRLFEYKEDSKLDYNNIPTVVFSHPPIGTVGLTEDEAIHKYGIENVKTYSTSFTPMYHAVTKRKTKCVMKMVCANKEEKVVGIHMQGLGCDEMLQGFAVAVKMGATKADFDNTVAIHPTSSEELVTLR
The experiment in a line: Inhibition of human GR at 2 uM.

In test [4] the target is T1, Thioredoxin reductase. Kind of test: Inhibition of Plasmodium falciparum TrxR.
Test [5] has as its system Plasmodium falciparum. The experiment in a line: Growth inhibition against Plasmodium falciparum K1. Format: functional, organism-based.
Test [6] deals with Thioredoxin reductase (Homo sapiens, UniProt Q16881+Q9NNW7+Q86VQ6). The experiment in a line: Inhibition of human TrxR. It counts as protein assay.
In test [7] the target is T1, Thioredoxin reductase. The experiment in a line: Binding affinity to Plasmodium falciparum TrxR in presence of NADPH.
Test [8] has as its target Glutathione reductase (Plasmodium falciparum 3D7) (UniProt O15770). Kind of test: Inhibition of Plasmodium falciparum GR at 2 uM.
The target in test [9] is T3, Thioredoxin reductase (Plasmodium falciparum 3D7) (UniProt P61076).
T3 sequence (whole entry): T1 sequence (P61076 whole entry)
The conditions noted are these: 2 uM.

The target of test [10] is T3, Thioredoxin reductase (Plasmodium falciparum 3D7). The note with it: 2 uM. The source holds these as a separate data set.
Test [11] shares this target. The conditions noted are these: 100 uM.
Test [12] shares this target. Kind of test: Inhibition of Plasmodium falciparum TrxR at 100 uM.

Sequence of Glutathione reductase (Plasmodium falciparum 3D7) (O15770 whole entry): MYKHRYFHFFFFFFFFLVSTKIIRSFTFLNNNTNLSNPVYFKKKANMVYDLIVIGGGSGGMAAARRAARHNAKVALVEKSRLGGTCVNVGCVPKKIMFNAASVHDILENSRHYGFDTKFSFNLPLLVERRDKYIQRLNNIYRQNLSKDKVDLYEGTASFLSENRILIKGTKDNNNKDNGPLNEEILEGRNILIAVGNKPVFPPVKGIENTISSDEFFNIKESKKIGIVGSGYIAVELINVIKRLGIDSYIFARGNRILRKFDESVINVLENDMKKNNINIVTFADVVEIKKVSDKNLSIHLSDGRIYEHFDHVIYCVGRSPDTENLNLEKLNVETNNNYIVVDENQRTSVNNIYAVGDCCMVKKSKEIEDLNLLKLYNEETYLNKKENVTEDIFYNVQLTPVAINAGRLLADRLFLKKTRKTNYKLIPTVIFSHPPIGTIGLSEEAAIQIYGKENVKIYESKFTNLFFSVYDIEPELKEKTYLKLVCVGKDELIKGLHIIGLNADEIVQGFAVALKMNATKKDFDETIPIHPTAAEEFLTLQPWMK

For `O=[N+]([O-])c1cccc2nsnc12`, the inhibition constant (Ki) at Thioredoxin reductase [1] is 0.65 µM; at Thioredoxin reductase [7] it was 1 µM. Also, the IC50 in the test on Plasmodium falciparum [2] is 2.9 µM; at Thioredoxin reductase [4], 2 µM; in the test with Plasmodium falciparum [5], 11 µM; against Thioredoxin reductase [6] it was 50 µM. Moreover, the inhibition in test [3] was determined as 81%; in [8], 69%.

With `O=[N+]([O-])c1ccc2nccnc2c1`, the IC50 against Thioredoxin reductase [4] was 40 µM; at Thioredoxin reductase [6], more than 200 µM.

As to `O=[N+]([O-])c1cc(C(F)(F)F)cc([N+](=O)[O-])c1Cl` [CHLORALIN], the concentration for half-maximal inhibition (IC50) at Thioredoxin reductase [4] came out at 8 µM; at Thioredoxin reductase [6], 100 µM.

Take `O=[N+]([O-])c1cc2nccnc2cc1[N+](=O)[O-]`: the inhibition in [9] worked out at 15%; in test [3], 27%; in test [10] it was 70%; in test [11] it was 15%; in test [8] it was 39%. The 50% inhibitory concentration (IC50) is 2 µM on Thioredoxin reductase [4], 15 µM with Plasmodium falciparum [5] and 140 µM at Thioredoxin reductase [6].

For the compound `O=[N+]([O-])c1ccc2nsnc2c1`, the half-inhibitory concentration (IC50) was 10 µM against Thioredoxin reductase [4] and 90 µM at Thioredoxin reductase [6].

Take `O=[N+]([O-])c1cc(C(F)(F)F)ccc1Sc1ccc(C(F)(F)F)cc1[N+](=O)[O-]`: the IC50 against Thioredoxin reductase [4] is 20 µM; against Thioredoxin reductase [6], more than 150 µM.

On to `O=[N+]([O-])c1cc([N+](=O)[O-])cc(C(F)(F)F)c1`, for which the IC50 is 30 µM on Thioredoxin reductase [4] and more than 200 µM at Thioredoxin reductase [6].

As for `O=[N+]([O-])c1ccc2c(c1)OCO2`, the inhibition in test [12] is less than 10%. On Thioredoxin reductase [6], this compound yielded an IC50 of more than 200 µM.

Consider `O=[N+]([O-])c1ccc2c(c1[N+](=O)[O-])OCO2`, for which the IC50 was found to be 10 µM against Thioredoxin reductase [4] and 80 µM on Thioredoxin reductase [6].

The values above are taken from ChEMBL document CHEMBL1146972, “Specific inhibitors of Plasmodium falciparum thioredoxin reductase as potential antimalarial agents” (Bioorg Med Chem Lett, 2006).
